Laboratory results as given in PubChem BioAssay (NCI).
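Cells were grown in 96-well plates and exposed to each compound for 48 hours at five concentrations; endpoints were interpolated linearly between bracketing concentrations, or set to the highest concentration if not reached. Here, GI50 denotes the concentration required for 50% inhibition of growth. At the TGI there is no net growth.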

Key:
Experiment in all cases: growth of human tumour cells (NCI), 48 h
NCI-H460 lung = system: NCI-H460 lung
SK-OV-3 ovarian = system: SK-OV-3 ovarian
PC-3 prostate = system: PC-3 prostate
UACC-62 melanoma = system: UACC-62 melanoma
COLO 205 colon = system: COLO 205 colon
OVCAR-8 ovarian = system: OVCAR-8 ovarian
MALME-3M melanoma = system: MALME-3M melanoma
SNB-75 CNS = system: SNB-75 CNS
BT-549 breast = system: BT-549 breast
786-0 renal = system: 786-0 renal
M14 melanoma = system: M14 melanoma
EKVX NSCLC = system: EKVX NSCLC
T-47D breast = system: T-47D breast
ACHN renal = system: ACHN renal
LOX IMVI melanoma = system: LOX IMVI melanoma
CAKI-1 renal = system: CAKI-1 renal
HCT-15 colon = system: HCT-15 colon
A549 NSCLC = system: A549 NSCLC
SK-MEL-2 melanoma = system: SK-MEL-2 melanoma
TK-10 renal = system: TK-10 renal
MDA-MB-435 = system: MDA-MB-435
DU-145 prostate = system: DU-145 prostate
A498 renal = system: A498 renal
HT29 colon = system: HT29 colon
NCI-H226 lung = system: NCI-H226 lung
SF-295 CNS = system: SF-295 CNS
NCI-H522 lung = system: NCI-H522 lung
RPMI-8226 leukemia = system: RPMI-8226 leukemia
MDA-MB-231 breast = system: MDA-MB-231 breast
OVCAR-5 ovarian = system: OVCAR-5 ovarian
MCF7 breast = system: MCF7 breast
OVCAR-3 ovarian = system: OVCAR-3 ovarian
HCC-2998 colon = system: HCC-2998 colon
NCI/ADR-RES ovarian = system: NCI/ADR-RES ovarian
KM12 colon = system: KM12 colon
CCRF-CEM leukemia = system: CCRF-CEM leukemia
IGROV1 ovarian = system: IGROV1 ovarian
SR leukemia = system: SR leukemia
SW-620 colon = system: SW-620 colon
OVCAR-4 ovarian = system: OVCAR-4 ovarian
SNB-19 CNS = system: SNB-19 CNS
SK-MEL-28 melanoma = system: SK-MEL-28 melanoma
K-562 leukemia = system: K-562 leukemia
HOP-92 NSCLC = system: HOP-92 NSCLC
MOLT-4 leukemia = system: MOLT-4 leukemia
SF-268 CNS = system: SF-268 CNS
SN12C renal = system: SN12C renal
RXF 393 renal = system: RXF 393 renal
HS 578T breast = system: HS 578T breast
UACC-257 melanoma = system: UACC-257 melanoma
HOP-62 NSCLC = system: HOP-62 NSCLC
SK-MEL-5 melanoma = system: SK-MEL-5 melanoma
SF-539 CNS = system: SF-539 CNS
NCI-H23 lung = system: NCI-H23 lung
U251 CNS = system: U251 CNS
HL-60(TB) leukemia = system: HL-60(TB) leukemia
UO-31 renal = system: UO-31 renal
HCT-116 colon = system: HCT-116 colon

## CN(C)C/C=C/C(=O)Nc1ccc(C(=O)N2CCC[C@@H](Nc3ncc(Cl)c(-c4c[nH]c5ccccc45)n3)C2)cc1
NCI-H460 lung
  GI50: 498 nM
  TGI: 5620 nM
SK-OV-3 ovarian
  GI50: 395 nM
  TGI: 12400 nM
PC-3 prostate
  GI50: 308 nM
  TGI: 3480 nM
UACC-62 melanoma
  GI50: 173 nM
  TGI: 445 nM
COLO 205 colon
  GI50: 33.8 nM
  TGI: 122 nM
OVCAR-8 ovarian
  GI50: 406 nM
  TGI: 11800 nM
MALME-3M melanoma
  GI50: 37.2 nM
  TGI: 315 nM
SNB-75 CNS
  GI50: 97.8 nM
  TGI: 444 nM
BT-549 breast
  GI50: 267 nM
  TGI: 1220 nM
786-0 renal
  GI50: 1960 nM
  TGI: 8380 nM
M14 melanoma
  GI50: 359 nM
  TGI: 2160 nM
EKVX NSCLC
  GI50: 827 nM
  TGI: 7500 nM
T-47D breast
  GI50: 42.7 nM
  TGI: 4270 nM
ACHN renal
  GI50: 3410 nM
  TGI: 12700 nM
LOX IMVI melanoma
  GI50: 55.8 nM
  TGI: 1280 nM
CAKI-1 renal
  GI50: 1650 nM
  TGI: 12100 nM
HCT-15 colon
  GI50: 8650 nM
  TGI: 23200 nM
A549 NSCLC
  GI50: 581 nM
  TGI: 11000 nM
SK-MEL-2 melanoma
  GI50: 115 nM
  TGI: 392 nM
TK-10 renal
  GI50: 2310 nM
  TGI: 12900 nM
MDA-MB-435
  GI50: 83.2 nM
  TGI: 1230 nM
DU-145 prostate
  GI50: 215 nM
  TGI: 11100 nM
A498 renal
  GI50: 192 nM
  TGI: 495 nM
HT29 colon
  GI50: 285 nM
  TGI: 4200 nM
NCI-H226 lung
  GI50: 365 nM
  TGI: 3200 nM
SF-295 CNS
  GI50: 685 nM
  TGI: 4010 nM
NCI-H522 lung
  GI50: 34.4 nM
  TGI: 228 nM
RPMI-8226 leukemia
  GI50: 422 nM
  TGI: 3830 nM
MDA-MB-231 breast
  GI50: 138 nM
  TGI: 6710 nM
OVCAR-5 ovarian
  GI50: 328 nM
  TGI: 11600 nM
MCF7 breast
  GI50: 42.7 nM
  TGI: 7160 nM
OVCAR-3 ovarian
  GI50: 64.4 nM
  TGI: 990 nM
HCC-2998 colon
  GI50: 107 nM
  TGI: 1200 nM
NCI/ADR-RES ovarian
  GI50: 32800 nM
  TGI: > 100000 nM
KM12 colon
  GI50: 371 nM
  TGI: 12100 nM
CCRF-CEM leukemia
  GI50: 43.8 nM
  TGI: 15800 nM
IGROV1 ovarian
  GI50: 149 nM
  TGI: 11300 nM
SR leukemia
  GI50: 33.7 nM
  TGI: 1030 nM
SW-620 colon
  GI50: 191 nM
  TGI: 5740 nM
OVCAR-4 ovarian
  GI50: 66.4 nM
  TGI: 9740 nM
SNB-19 CNS
  GI50: 196 nM
  TGI: 11100 nM
SK-MEL-28 melanoma
  GI50: 121 nM
  TGI: 942 nM
K-562 leukemia
  GI50: 86.3 nM
  TGI: > 100000 nM
HOP-92 NSCLC
  GI50: 244 nM
  TGI: 1540 nM
MOLT-4 leukemia
  GI50: 182 nM
  TGI: 3550 nM
SF-268 CNS
  GI50: 125 nM
  TGI: 1780 nM
SN12C renal
  GI50: 210 nM
  TGI: 9290 nM
RXF 393 renal
  GI50: 115 nM
  TGI: 561 nM
HS 578T breast
  GI50: 214 nM
  TGI: 1450 nM
UACC-257 melanoma
  GI50: 234 nM
  TGI: 1320 nM
HOP-62 NSCLC
  GI50: 432 nM
  TGI: 5740 nM
SK-MEL-5 melanoma
  GI50: 231 nM
  TGI: 618 nM
SF-539 CNS
  GI50: 176 nM
  TGI: 650 nM
NCI-H23 lung
  GI50: 189 nM
  TGI: 783 nM
U251 CNS
  GI50: 306 nM
  TGI: 10000 nM
HL-60(TB) leukemia
  GI50: 35.3 nM
  TGI: 173 nM
UO-31 renal
  GI50: 9840 nM
  TGI: 23000 nM
HCT-116 colon
  GI50: 154 nM
  TGI: 10600 nM
